Results as given in patent US11352322B2, “Cyclopropyl-amide compounds as dual LSD1/HDAC inhibitors” (Jubilant Epicore LLC, priority 2016, dated 2022).
Counter-ions that a name gives are not always drawn. Like-named read-outs stand apart in the source and are kept apart here.

Experiments:
MM1S = test: Anticancer activity: Alamar Blue assay, MM1S; format: cell-based; conditions: Homo sapiens, MM1.S, read-out: MM1S EC50
Method: Cells were seeded at 5000 cells/per well in 96-well tissue culture plate and incubated at 37° C./5% CO2. After 16-24 hours, fresh media was added to the wells. Compounds were then (1% DMSO conc.) added to the cells at 10 concentrations ranging from 10-0.0005 uM prepared in 3-fold serial dilutions. Cells were incubated for 68-72 h at 37° C./5% CO2. Alamar Blue™ reagent was added and incubated for 1-3 hours at 37° C./5% CO2. Plates were read on fluorescence reader at 540 nm excitation, 590 nm emission wave lengths.

[1] = Metabolic stability in liver microsomes, HLM; conditions: 1 μM, NADPH
Method: (§1) The microsomal suspension was prepared by adding liver microsomes to 100 mM potassium phosphate buffer (pH7.4) to give a final protein concentration of 0.5 mg/mL. The stock solution of NCE (10 mM in DMSO) was added to the microsomes to provide a final concentration of 1 μM. […] Samples were vortexed and centrifuged at 5,000 rpm for 10 min to remove proteins. Supernatant were analyzed on LC-MS/MS.

[2] = Metabolic stability in liver microsomes, MLM; conditions: 1 μM, NADPH
Method: as §1

SMILES: O=C(NO)c1cnc(N2CCn3cc(CNC4CC4c4ccc(F)cc4)nc3C2)nc1 (stereo not drawn) [Example 25, 2-(2-(((2-(4-fluorophenyl)cyclopropyl)amino)methyl)-5,6-dihydroimidazo[1,2-a]pyrazin-7(8H)-yl)-N-hydroxypyrimidine-5-carboxamide TFA Salt]
- EC50 (MM1S): 11 nM
- Metabolic stability HLM % remaining in 30 min [1]: 75%
- Metabolic stability MLM % remaining in 30 min [2]: 85%

SMILES: Nc1ccccc1NC(=O)c1ccc(CCCN2CC(CNC3CC3c3ccc(F)cc3)C2)cc1 (stereo not drawn) [Example 126, N-(2-aminophenyl)-4-(3-(3-(((2-(4-fluorophenyl)cyclopropyl)amino)methyl)azetidin-1-yl)propyl)benzamide TFA Salt]
- Metabolic stability HLM % remaining in 30 min [1]: 79%
- Metabolic stability MLM % remaining in 30 min [2]: 76%

SMILES: O=C(NO)c1cnc(N2CCC(NC3CC3c3ccc(-c4ccc(Cl)cc4)cc3)CC2)nc1 (stereo not drawn) [Example 13, 2-(4-((2-(4′-chloro-[1,1′-biphenyl]-4-yl)cyclopropyl)amino)piperidin-1-yl)-N-hydroxypyrimidine-5-carboxamide TFA Salt]
- EC50 (MM1S): 24 nM
- Metabolic stability HLM % remaining in 30 min [1]: 57%
- Metabolic stability MLM % remaining in 30 min [2]: 23%

SMILES: O=C(/C=C/c1ccc(CNC2CC2c2ccc(OCc3ccc(F)cc3)cc2)cc1)NO (stereo not drawn) [Example 3, (E)-3-(4-(((2-(4-((4-fluorobenzyl)oxy)phenyl)cyclopropyl)amino)methyl)phenyl)-N-hydroxyacrylamide TFA Salt]
- EC50 (MM1S): 104 nM
- Metabolic stability HLM % remaining in 30 min [1]: 65%
- Metabolic stability MLM % remaining in 30 min [2]: < 5%

SMILES: O=C(NO)c1cnc(N2CCC(NC3CC3c3ccc(F)cc3)CC2)nc1 (stereo not drawn) [Example 10, 2-{4-[2-(4-Fluoro-phenyl)-cyclopropylamino]-piperidin-1-yl}-pyrimidine-5-carboxylic acid hydroxyamide TFA salt]
- EC50 (MM1S): 9 nM
- Metabolic stability HLM % remaining in 30 min [1]: 81%
- Metabolic stability MLM % remaining in 30 min [2]: 55%

SMILES: O=C(/C=C/c1ccc(CNC2CC2c2ccc(F)cc2)cc1)NO (stereo not drawn) [Example 2, (E)-3-(4-{[2-(4-Fluoro-phenyl)-cyclopropylamino]-methyl}-phenyl)-N-hydroxy-acrylamide TFA Salt]
- Metabolic stability HLM % remaining in 30 min [1]: 41%
- Metabolic stability MLM % remaining in 30 min [2]: 19%

SMILES: O=C(NO)c1cnc(N2CCC(CNC3CC3c3ccc(-c4ccc(Cl)cc4)cc3)CC2)nc1 (stereo not drawn) [Example 14, 2-(4-(((2-(4′-chloro-[1,1′-biphenyl]-4-yl)cyclopropyl)amino)methyl)piperidin-1-yl)-N-hydroxypyrimidine-5-carboxamide TFA Salt]
- EC50 (MM1S): 8 nM
- Metabolic stability HLM % remaining in 30 min [1]: 88%
- Metabolic stability MLM % remaining in 30 min [2]: 82%

SMILES: O=C(NO)c1ccc(CCCNC2CC2c2ccc(F)cc2)cc1 (stereo not drawn) [Example 30, 4-(3-((2-(4-fluorophenyl)cyclopropyl)amino)propyl)-N-hydroxybenzamide TFA Salt]
- EC50 (MM1S): 45 nM
- Metabolic stability HLM % remaining in 30 min [1]: 16%
- Metabolic stability MLM % remaining in 30 min [2]: 51%

SMILES: Nc1ccccc1NC(=O)c1ccc(CCCN2CCC(CNC3CC3c3ccc(F)c(F)c3)CC2)cc1 (stereo not drawn) [Example 124, N-(2-aminophenyl)-4-(3-(4-(((2-(3,4-difluorophenyl)cyclopropyl)amino)methyl)piperidin-1-yl)propyl)benzamide TFA Salt]
- EC50 (MM1S): 14 nM
- Metabolic stability HLM % remaining in 30 min [1]: 73%
- Metabolic stability MLM % remaining in 30 min [2]: 68%

SMILES: COc1ccc(C2CC2NCC2CCN(CCCc3ccc(C(=O)Nc4ccccc4N)cc3)CC2)cc1 (stereo not drawn) [Example 123, N-(2-aminophenyl)-4-(3-(4-(((2-(4methoxyphenyl)cyclopropyl)amino)methyl)piperidin-1-yl)propyl)benzamide TFA Salt]
- EC50 (MM1S): 9 nM
- Metabolic stability HLM % remaining in 30 min [1]: 82%
- Metabolic stability MLM % remaining in 30 min [2]: 72%

SMILES: COc1ccc(C2CC2NCc2cn3c(n2)CN(c2ncc(C(=O)NO)cn2)CC3)cc1 (stereo not drawn) [Example 24, N-hydroxy-2-(2-(((2-(4-methoxyphenyl)cyclopropyl)amino)methyl)-5,6-dihydroimidazo[1,2-a]pyrazin-7(8H)-yl)pyrimidine-5-carboxamide TFA Salt]
- EC50 (MM1S): 9 nM
- Metabolic stability HLM % remaining in 30 min [1]: 71%
- Metabolic stability MLM % remaining in 30 min [2]: 74%

SMILES: O=C(NO)c1cnc(N2CCC(CNC3CC3c3ccc(OCc4ccc(F)cc4)cc3)CC2)nc1 (stereo not drawn) [Example 11, 2-(4-(((2-(4-((4-fluorobenzyl)oxy)phenyl)cyclopropyl)amino)methyl)piperidin-1-yl)-N-hydroxypyrimidine-5-carboxamide TFA Salt]
- EC50 (MM1S): 18 nM
- Metabolic stability HLM % remaining in 30 min [1]: 44%
- Metabolic stability MLM % remaining in 30 min [2]: 14%

SMILES: Nc1ccccc1NC(=O)c1ccc(CCCN2CCC(CNC3CC3c3ccc(C(=O)N4CCCCC4)cc3)CC2)cc1 (stereo not drawn) [Example 125, N-(2-aminophenyl)-4-(3-(4-(((2-(4-(piperidine-1-carbonyl)phenyl)cyclopropyl)amino)methyl)piperidin-1-yl)propyl)benzamide TFA Salt]
- Metabolic stability HLM % remaining in 30 min [1]: 34%
- Metabolic stability MLM % remaining in 30 min [2]: 49%

SMILES: O=C(/C=C/c1ccc(CNC2CC2c2ccc(C3CC3)cc2)cc1)NO (stereo not drawn) [Example 1, (E)-3(4(((2(4cyclopropylphenyl)cyclopropl)amino)methyl)phenyl)-N-hydroxyacrylamide]
- Metabolic stability HLM % remaining in 30 min [1]: 21%
- Metabolic stability MLM % remaining in 30 min [2]: 5%

SMILES: Nc1ccccc1NC(=O)/C=C/c1ccc(CNC2CC2c2ccc(F)cc2)cc1 (stereo not drawn) [Example 120]
- Metabolic stability HLM % remaining in 30 min [1]: 27%
- Metabolic stability MLM % remaining in 30 min [2]: 16%

SMILES: O=C(NO)c1cccc(CNC2CC2c2ccc(Br)cc2)c1 (stereo not drawn) [Example 26, 3-(((2-(4-bromophenyl)cyclopropyl)amino)methyl)-N-hydroxybenzamide TFA Salt]
- Metabolic stability HLM % remaining in 30 min [1]: 30%
- Metabolic stability MLM % remaining in 30 min [2]: 13%

SMILES: O=C(CCCCCNC1CC1c1ccccc1)NO (stereo not drawn) [Example 29, N-hydroxy-6-((2-phenylcyclopropyl)amino)hexanamide TFA Salt]
- Metabolic stability HLM % remaining in 30 min [1]: > 95%
- Metabolic stability MLM % remaining in 30 min [2]: 90%

SMILES: O=C(NO)c1ccc(CCCN2CCc3cc(CNC4CC4c4ccc(F)cc4)ccc3C2)cc1 (stereo not drawn) [Example 78, 4-(3-(6-(((2-(4-fluorophenyl)cyclopropyl)amino)methyl)-3,4-dihydroisoquinolin-2(1H)-yl)propyl)-N-hydroxybenzamide TFA Salt]
- Metabolic stability HLM % remaining in 30 min [1]: 72%
- Metabolic stability MLM % remaining in 30 min [2]: 32%

SMILES: Cc1noc(C)c1-c1ccc(C2CC2NCC2CN(CCCc3cccc(C(=O)NO)c3)C2)cc1 (stereo not drawn) [Example 65, 3-(3-(3-(((2-(4-(3,5-dimethylisoxazol-4-yl)phenyl)cyclopropyl)amino)methyl)azetidin-1-yl)propyl)-N-hydroxybenzamide TFA Salt]
- EC50 (MM1S; MM1S cells): 26 nM

SMILES: O=C(CCCCCCNC(=O)c1ccc(CNC2CC2c2ccccc2)cc1)NO (stereo not drawn) [Example 31, N-(6-Hydroxycarbamoyl-hexyl)-4-[(2-phenyl-cyclopropylamino)-methyl]-benzamide TFA Salt]
- Metabolic stability HLM % remaining in 30 min [1]: 39%
- Metabolic stability MLM % remaining in 30 min [2]: 18%

SMILES: O=C(NO)c1ccc(CN2CCC(CNC3CC3c3ccccc3)CC2)cc1 (stereo not drawn) [Example 36, N-Hydroxy-4-{4-[(2-phenyl-cyclopropylamino)-methyl]-piperidin-1-ylmethyl}-benzamide TFA Salt]
- Metabolic stability HLM % remaining in 30 min [1]: 63%
- Metabolic stability MLM % remaining in 30 min [2]: 53%
